Test results taken from publication PMC8301260 (Medicinal chemistry research : an international journal for …, 2016).
Entries after “also recorded” stand apart in the source; their conditions may differ.

Assays:
human PBM cells = settings: read-out: Cytotoxicity IC50 PBM; uninfected PHA-stimulated human PBM cells
HIV-1/LAI = type: cell-based; settings: for EC50: read-out: Anti-HIV-1 activity in human PBM cells EC50, HIV-1/LAI, median effect method; for activity against HIV-1 (in words): human PBM cells
in vitro [1] = settings: human, uninfected PHA-stimulated human PBM cells
in vitro [2] = settings: human
in vitro [3] = settings: African green monkey, Vero (African green monkey kidney) cells
[4] = system: CEM (T-lymphoblastoid cell line)
[5] = system: Vero (African green monkey kidney) cells; settings: read-out: Cytotoxicity IC50 Vero
HIV-1 = settings: ref De Corte 2005; Pauwels et al. 1993; cited from earlier work

Compound	IC50 (in vitro [1])	IC50 (in vitro [2])	IC50 (in vitro [3])	other results
Cc1cn([C@H]2C[C@H](N=[N+]=[N-])[C@@H](CO)O2)c(=O)[nH]c1=O [AZT, 3′-Azido-2′,3′-dideoxythymidine, reference compound]	–	–	–	IC50 (human PBM cells): > 100 µM
Cc1ccc(NC(C#N)c2ccc(OCc3ccc(Cl)cc3Cl)cc2)cc1 (stereo not shown) [Compound 2h, 2-[4-(2,4-Dichlorobenzyloxy)phenyl]-2-(4-toluidino)acetonitrile]	15 µM	11.7 µM	39.7 µM	EC50 (HIV-1/LAI): 3.1 µM
Cc1ccc(N2C(=O)CCC2(C#N)c2ccc(OC(C)C)cc2)cc1 (stereo not shown) [Compound 3e, 2-(4-Isopropoxyphenyl)-1-(4-methylphenyl)-5-oxo-2-pyrrolidinecarbonitrile]	> 100 µM	17 µM	46.5 µM	–
Cc1ccc(N2C(=O)CCC2(C#N)c2ccc(OCc3ccccc3)cc2)cc1 (stereo not shown) [Compound 3g, 2-(4-Benzyloxyphenyl)-1-(4-methylphenyl)-5-oxo-2-pyrrolidinecarbonitrile]	> 100 µM	30.3 µM	53.9 µM	–
Cc1ccc(N2C(=O)CCC2(C#N)c2ccc(OCc3ccc(Cl)cc3Cl)cc2)cc1 (stereo not shown) [Compound 3h, 2-[4-(2,4-Dichlorobenzyloxy)phenyl]-1-(4-methylphenyl)-5-oxo-2-pyrrolidinecarbonitrile]	9.7 µM	6.6 µM	21.8 µM	–
Cc1cc(C)cc(NC(C(N)=O)c2c(Cl)cccc2Cl)c1 (stereo not shown) [Compound 4, 2-(2,6-Dichlorophenyl)-2-(3,5-dimethylanilino)acetamide]	6.1 µM	5.8 µM	68.7 µM	activity against HIV-1 (in words) (HIV-1/LAI): very potent; also recorded: very active
Cc1ccc(N2C(=O)CCC2(CN)c2ccccc2)cc1 (stereo not shown) [Compound 5a, 5-Aminomethyl-1-(4-methylphenyl)-5-phenyl-2-pyrrolidinone]	54.1 µM	53.6 µM	> 100 µM	–
Cc1ccc(N2C(=O)CCC2(CN)c2ccc(OCc3ccccc3)cc2)cc1 (stereo not shown) [Compound 5f, 5-Aminomethyl-5-(4-benzyloxyphenyl)-1-(4-methylphenyl)-2-pyrrolidinone]	15.9 µM	33.7 µM	12.3 µM	–
NCC1(c2ccccc2)CCCN1C(=O)c1ccc(Br)cc1 (stereo not shown) [Compound 10]	–	–	–	activity against HIV-1 (in words) (HIV-1/LAI): no inhibition; EC50 (HIV-1/LAI): > 100 µM; EC90 (HIV-1/LAI; read-out: Anti-HIV-1 activity in human PBM cells EC90, HIV-1/LAI, median effect method): > 100 µM; IC50 (human PBM cells): > 100 µM; IC50 [4]: 96.1 µM; IC50 [5]: > 100 µM
CC(=O)c1ccc(C)cc1NC(C(N)=O)c1c(Cl)cccc1Cl (stereo not shown) [loviride]	–	–	–	inhibitory concentration relative to the cytotoxic concentration (fold less) (HIV-1): 10,000 fold
